Test results taken from patent US6335038B1, “Composition for the prevention and/or treatment of osteoporosis and alterations due to menopause syndrome” (Sigma-Tau Healthscience S.p.A., priority 1998, dated 2002).

Tests used:
[1] = tested on: serum osteocalcin; assay: Evaluation of changes in serum osteocalcin concentration; type: in vivo, mice; conditions: for Osteocalcin, serum concentration: mice aged at least 7 months, daily with diet; for effect on serum osteocalcin concentrations (in words): mice, versus control animals
Procedure: There is a close correlation between changes in plasma levels of osteocalcin and bone tissue osteoblast activity, and a reduction in osteocalcin plasma levels is an indicator of […] osteoblast activity which appears to underlie osteoporosis in elderly subjects or in the postmenopausal period in women. These tests were performed on a batch of mice aged at least 7 months, divided into various groups of 10 mice each.
The treatment was administered daily for thirty days or sixty days consecutively.

[2] = tested on: prostacyclin synthesis in rat peritoneal macrophages; assay: Prostacyclin synthesis tests (PGI2 release by peritoneal macrophages from treated rats); type: in vivo; conditions: for effect on PGI2 synthesis in macrophages (in words): rats treated seven days, versus controls; for Macrophage PGI2 release values compared with controls: rats treated with diet for seven days (carnitine mixture 400 mg/kg, propionyl L-carnitine 400 mg/kg, soy extract 8 g/kg, genistein 40 mg/kg), carrageenin i.p. day 1, controls 0.25 ± 0.03
Procedure: The method used in these tests was the one described by G. R. Elliot in Brit. J. Nutrition, 64, 497, 1990, measuring the release of prostaglandins by peritoneal macrophages isolated from a batch of rats that were administered either the carnitine mixture, or the soy extract, or propionyl L-carnitine, or genistein, or various combinations of these products with their diet for seven days consecutively. The doses given were 400 mg/kg of carnitine mixture, or 400 mg/kg of propionyl L-carnitine, or 8 g/kg of soy extract, or 40 mg/kg of genistein, or the same doses of the various products combined. On day 1 of treatment, all the animals were treated intraperitoneally with 2 cm^3 of solution containing 2 mg of carrageenin. After the last day of treatment, peritoneal macrophages were isolated from the controls and treated rats so as to obtain a […] cell suspension.
One cm^3 of the macrophage preparation thus prepared was incubated for a period of two hours in order to evaluate the basal release or release after 30 minutes after being placed in contact with an ionophore such as […]. The cells were centrifuged and the supernatant analysed for its PGI2 content according to the radioimmunological assay method described by Zijstra et al. (Zijstra, F. J., Vincent, J. E., J. Chromatography, 311, 39, 1984).

[3] = tested on: MC3T3 osteoblast-like cells; assay: Osteoblastic cell growth tests; type: cell-based, mouse; conditions: 72-hour incubation; 0.05 mM carnitine, 0.005 mM isoflavones or genistein; versus controls
Procedure: In view of the important role played by osteoblasts in regulating growth and in bone remodelling, a series of tests was conducted to evaluate whether the presence of carnitines or isoflavonoids and genistein could influence the growth of osteoblastic cells in vitro.

[4] = Toxicological tests, single-dose administration, rats; conditions: single dose: carnitine mixture 600 mg/kg, propionyl L-carnitine 600 mg/kg, soy extract (5% isoflavones) 5 g/kg, genistein 15 mg/kg
[5] = Toxicological tests, single-dose administration, mice; conditions: single dose: carnitine mixture 600 mg/kg, propionyl L-carnitine 600 mg/kg, soy extract (5% isoflavones) 5 g/kg, genistein 15 mg/kg
[6] = duration of treatment 30 days, controls 120.4 ± 8.6
[7] = duration of treatment 60 days, controls 90.5 ± 7.9

SMILES	Osteocalcin, serum concentration [1, 6] [ng/mL]	Osteocalcin, serum concentration [1, 7] [ng/mL]	effect on serum osteocalcin concentrations (in words) [1]	effect on PGI2 synthesis in macrophages (in words) [2]	Macrophage PGI2 release values compared with controls [2] [ng/2 × 10^−6 cells]	effect on growth of osteoblastic cells (in words) [3]	mortality or evident signs of toxicity after single dose [4]	mortality or evident signs of toxicity after single dose [5]
CCC(=O)O[C@H](CC(=O)[O-])C[N+](C)(C)C [Propionyl L-carnitine, propionyl L-carnitine]	130.7 ± 10.1	98.5 ± 8.1	capable of increasing the serum osteocalcin concentrations	increase in PGI2 synthesis	3.0 ± 0.22	modest effect on the growth of cells	without any mortality or evident signs of toxicity	without any mortality or evident signs of toxicity
O=c1c(-c2ccc(O)cc2)coc2cc(O)cc(O)c12 [Genistein, 4′,5,7-trihydroxyisoflavone]	135.9 ± 10.2	100.1 ± 10.2	capable of increasing the serum osteocalcin concentrations	only modest	0.39 ± 0.27	neither the isoflavones nor genistein appear to influence the normal growth rate of the cells	without any mortality or evident signs of toxicity	without any mortality or evident signs of toxicity
